Usually EC50 stands for the concentration needed to bring the measured effect to its halfway point.

The text below walks through data of patent publication US20250353891A1 (MEDIMMUNE LIMITED, priority 2022, published 2025).

In test [1] the target is human glucagon receptor (hGCGR) (Homo sapiens, UniProt P47871). The test can be described thus: cAMP production (HTRF) in CHO cells expressing hGCGR. Also on record: expressed in transfected cells. To be noted: Table 6, peptides modified at position 17; cAMP in CHO hGCGR cells; geometric mean; read-out: hGluc-R EC50. It is filed as cell-based. Put shortly: (§1)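 Read-out: HTRF cAMP (anti-cAMP cryptate donor, cAMP-d2 acceptor in conjugate/lysis buffer), converted to % Delta F and fitted by 4-parameter logistic for EC50. Cell densities were 1×10^5 cells/mL (hGLP-1R) or 2×10^5 cells/mL (hGCGR). Stimulation lasted 30 min at room temperature.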
human glucagon receptor (hGCGR), sequence (P47871 26-477): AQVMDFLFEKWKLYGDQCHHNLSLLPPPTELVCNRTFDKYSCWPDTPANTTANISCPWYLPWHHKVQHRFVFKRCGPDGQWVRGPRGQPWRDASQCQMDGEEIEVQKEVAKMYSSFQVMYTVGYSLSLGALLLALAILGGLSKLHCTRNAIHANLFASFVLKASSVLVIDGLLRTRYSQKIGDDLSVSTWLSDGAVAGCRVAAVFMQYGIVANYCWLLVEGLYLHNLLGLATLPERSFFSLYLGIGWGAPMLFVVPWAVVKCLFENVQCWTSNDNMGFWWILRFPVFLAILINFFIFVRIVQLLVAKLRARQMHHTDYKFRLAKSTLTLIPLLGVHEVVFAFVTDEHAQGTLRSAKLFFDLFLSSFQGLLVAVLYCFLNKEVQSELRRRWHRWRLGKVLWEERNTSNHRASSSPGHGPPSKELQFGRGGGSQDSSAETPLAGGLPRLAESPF
In general terms: cAMP levels reflect the balance of adenylyl cyclase and phosphodiesterase activity.

In test [2] the target is human GLP-1 receptor (hGLP-1R) (Homo sapiens, UniProt P43220). Kind of test: cAMP production (HTRF) in CHO cells expressing hGLP-1R. It is filed as cell-based. More on the design: expressed in transfected cells. To be noted: for EC50: Table 6, peptides modified at position 17, cAMP in CHO hGLP-1R cells, geometric mean, read-out: hGLP-1R EC50; for % Relative Potency Ratio: Table 6, % GLP-1R activity relative to GLP-1 / % GlucR activity relative to glucagon. The method in brief:
as §1

Starred links: 1 amine or outer side, 2 acyl side, 3 side chain; linkers in the order of their positions; H or OH if unused. Non-standard residues stand in square brackets, D forms with d. Residues, ends and D or L forms follow the SMILES beside them. Groups on a side chain read outwards from the residue. *: point of attachment. C18 diacid = O=C(O)CCCCCCCCCCCCCCCCC(=O)*; γGlu = O=C(O)[C@H](CCC(=O)[*:2])N[*:1]; αMeF = C[C@](N)(Cc1ccccc1)C(=O)O; AEEA = NCCOCCOCC(=O)O; Aib = CC(C)(N)C(=O)O

human GLP-1 receptor (hGLP-1R), sequence (P43220 24-463): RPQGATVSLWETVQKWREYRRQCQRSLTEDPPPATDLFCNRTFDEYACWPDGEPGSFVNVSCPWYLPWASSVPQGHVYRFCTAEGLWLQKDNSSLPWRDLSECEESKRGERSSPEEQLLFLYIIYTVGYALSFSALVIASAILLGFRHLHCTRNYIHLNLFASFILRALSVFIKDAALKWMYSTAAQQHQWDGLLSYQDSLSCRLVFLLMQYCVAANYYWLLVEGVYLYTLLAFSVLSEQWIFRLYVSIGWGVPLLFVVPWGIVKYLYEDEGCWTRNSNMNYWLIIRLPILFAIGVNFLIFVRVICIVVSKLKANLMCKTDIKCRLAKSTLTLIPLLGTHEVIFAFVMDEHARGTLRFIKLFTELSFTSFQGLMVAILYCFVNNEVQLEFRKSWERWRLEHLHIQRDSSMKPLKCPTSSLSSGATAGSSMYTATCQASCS

Turning to `CC(C)C[C@H](NC(=O)[C@H](CC(C)C)NC(=O)[C@H](Cc1c[nH]c2ccccc12)NC(=O)[C@H](CCCNC(=N)N)NC(=O)[C@@H](NC(=O)[C@H](Cc1ccccc1)NC(=O)[C@H](CC(=O)O)NC(=O)[C@H](CCC(N)=O)NC(=O)[C@H](C)NC(=O)[C@H](CCCNC(=N)N)NC(=O)[C@H](CCCCNC(=O)COCCOCCNC(=O)COCCOCCNC(=O)CC[C@H](NC(=O)CCCCCCCCCCCCCCCCC(=O)O)C(=O)O)NC(=O)[C@H](CO)NC(=O)[C@H](CC(=O)O)NC(=O)[C@H](CC(C)C)NC(=O)[C@](C)(Cc1ccccc1)NC(=O)[C@H](CCCCN)NC(=O)[C@H](CO)NC(=O)[C@@H](NC(=O)[C@H](CC(=O)O)NC(=O)[C@H](CO)NC(=O)[C@@H](NC(=O)[C@H](Cc1ccccc1)NC(=O)[C@@H](NC(=O)CNC(=O)[C@H](CCC(N)=O)NC(=O)C(C)(C)NC(=O)[C@@H](N)Cc1c[nH]cn1)[C@@H](C)O)[C@@H](C)O)C(C)C)C(C)C)C(=O)N[C@@H](CCC(=O)O)C(=O)N[C@@H](C)C(=O)NCC(=O)O` [Peptide 179] (H-H[Aib]QGTFTSDVSK[αMeF]LDSK([AEEA-AEEA-γGlu-C18 diacid])RAQDFVRWLLEAG-OH; N-terminus assumed), the EC50 in test [1] turned out to be 0.203 nM. In addition, in test [2], the EC50 came out at 0.131 nM and the “% Relative Potency Ratio” value was determined as 3.1.
As for `CC(C)C[C@H](NC(=O)[C@H](CC(C)C)NC(=O)[C@H](Cc1c[nH]c2ccccc12)NC(=O)[C@H](CCCNC(=N)N)NC(=O)[C@@H](NC(=O)[C@H](Cc1ccccc1)NC(=O)[C@H](CC(=O)O)NC(=O)[C@H](CCC(N)=O)NC(=O)[C@H](C)NC(=O)[C@H](CCCNC(=N)N)NC(=O)[C@H](CCCCNC(=O)COCCOCCNC(=O)COCCOCCNC(=O)CC[C@H](NC(=O)CCCCCCCCCCCCCCCCC(=O)O)C(=O)O)NC(=O)[C@H](CO)NC(=O)[C@H](CC(=O)O)NC(=O)[C@H](CC(C)C)NC(=O)[C@](C)(Cc1ccccc1)NC(=O)[C@H](CCCCN)NC(=O)[C@H](CO)NC(=O)[C@@H](NC(=O)[C@H](CC(=O)O)NC(=O)[C@H](CO)NC(=O)[C@@H](NC(=O)[C@H](Cc1ccccc1)NC(=O)[C@@H](NC(=O)CNC(=O)[C@H](CCC(N)=O)NC(=O)C(C)(C)NC(=O)[C@@H](N)Cc1c[nH]cn1)[C@@H](C)O)[C@@H](C)O)C(C)C)C(C)C)C(=O)N[C@@H](C)C(=O)NC(C)(C)C(=O)NCC(=O)O` [Peptide 180] (H-H[Aib]QGTFTSDVSK[αMeF]LDSK([AEEA-AEEA-γGlu-C18 diacid])RAQDFVRWLLA[Aib]G-OH; N-terminus assumed), the values for the EC50 in test [1] and in test [2] were 0.0717 nM and 0.0244 nM, respectively. Further, the “% Relative Potency Ratio” value in test [2] turned out to be 5.8.
On to `CC(C)C[C@H](NC(=O)[C@H](Cc1c[nH]c2ccccc12)NC(=O)[C@H](CCCNC(=N)N)NC(=O)[C@@H](NC(=O)[C@H](Cc1ccccc1)NC(=O)[C@H](CC(=O)O)NC(=O)[C@H](CCC(N)=O)NC(=O)[C@H](C)NC(=O)[C@H](CCCNC(=N)N)NC(=O)[C@H](CCCCNC(=O)COCCOCCNC(=O)COCCOCCNC(=O)CCCCCCCCCCCCCCCCC(=O)O)NC(=O)[C@H](CO)NC(=O)[C@H](CC(=O)O)NC(=O)[C@H](CC(C)C)NC(=O)[C@](C)(Cc1ccccc1)NC(=O)[C@H](CCCCN)NC(=O)[C@H](CO)NC(=O)[C@@H](NC(=O)[C@H](CC(=O)O)NC(=O)[C@H](CO)NC(=O)[C@@H](NC(=O)[C@H](Cc1ccccc1)NC(=O)[C@@H](NC(=O)CNC(=O)[C@H](CCC(N)=O)NC(=O)C(C)(C)NC(=O)[C@@H](N)Cc1c[nH]cn1)[C@@H](C)O)[C@@H](C)O)C(C)C)C(C)C)C(=O)N[C@@H](CC(C)C)C(=O)N[C@@H](CCC(=O)O)C(=O)NC(C)(C)C(=O)NCC(=O)O` [Peptide 181] (H-H[Aib]QGTFTSDVSK[αMeF]LDSK([AEEA-AEEA-C18 diacid])RAQDFVRWLLE[Aib]G-OH; N-terminus assumed), for which the 50% effective concentration (EC50) in test [1] is 0.0334 nM. Also, in test [2], the EC50 is 0.056 nM and the “% Relative Potency Ratio” value is given as 1.2.
As for `CC(C)C[C@H](NC(=O)[C@H](Cc1c[nH]c2ccccc12)NC(=O)[C@H](CCCNC(=N)N)NC(=O)[C@@H](NC(=O)[C@H](Cc1ccccc1)NC(=O)[C@H](CC(=O)O)NC(=O)[C@H](CCC(N)=O)NC(=O)[C@H](C)NC(=O)[C@H](CCCNC(=N)N)NC(=O)[C@H](CCCCNC(=O)COCCOCCNC(=O)COCCOCCNC(=O)CC[C@H](NC(=O)CCCCCCCCCCCCCCCCC(=O)O)C(=O)O)NC(=O)[C@H](CCCCN)NC(=O)[C@H](CC(=O)O)NC(=O)[C@H](CC(C)C)NC(=O)[C@](C)(Cc1ccccc1)NC(=O)[C@H](CCCCN)NC(=O)[C@H](CO)NC(=O)[C@@H](NC(=O)[C@H](CC(=O)O)NC(=O)[C@H](CO)NC(=O)[C@@H](NC(=O)[C@H](Cc1ccccc1)NC(=O)[C@@H](NC(=O)CNC(=O)[C@H](CCC(N)=O)NC(=O)C(C)(C)NC(=O)[C@@H](N)Cc1c[nH]cn1)[C@@H](C)O)[C@@H](C)O)C(C)C)C(C)C)C(=O)N[C@@H](CC(C)C)C(=O)N[C@@H](CCC(=O)O)C(=O)NC(C)(C)C(=O)NCC(=O)O` [Peptide 182] (H-H[Aib]QGTFTSDVSK[αMeF]LDKK([AEEA-AEEA-γGlu-C18 diacid])RAQDFVRWLLE[Aib]G-OH), the figures for the EC50 in test [1] and in test [2] were 0.0226 nM and 0.0291 nM, respectively. Moreover, the “% Relative Potency Ratio” value in test [2] was determined as 1.5.
As for `CC(C)C[C@H](NC(=O)[C@H](Cc1c[nH]c2ccccc12)NC(=O)[C@H](CCCNC(=N)N)NC(=O)[C@@H](NC(=O)[C@H](Cc1ccccc1)NC(=O)[C@H](CC(=O)O)NC(=O)[C@H](CCC(N)=O)NC(=O)[C@H](C)NC(=O)[C@H](CCCNC(=N)N)NC(=O)[C@H](CCCCNC(=O)COCCOCCNC(=O)COCCOCCNC(=O)CC[C@H](NC(=O)CCCCCCCCCCCCCCCCC(=O)O)C(=O)O)NC(=O)[C@H](CO)NC(=O)[C@H](CC(=O)O)NC(=O)[C@H](CC(C)C)NC(=O)[C@](C)(Cc1ccccc1)NC(=O)[C@H](CCCCN)NC(=O)[C@H](CO)NC(=O)[C@@H](NC(=O)[C@H](CC(=O)O)NC(=O)[C@H](CO)NC(=O)[C@@H](NC(=O)[C@H](Cc1ccccc1)NC(=O)[C@@H](NC(=O)CNC(=O)[C@H](CCC(N)=O)NC(=O)C(C)(C)NC(=O)[C@@H](N)Cc1c[nH]cn1)[C@@H](C)O)[C@@H](C)O)C(C)C)C(C)C)C(=O)N[C@@H](CC(C)C)C(=O)N[C@@H](CCC(=O)O)C(=O)NC(C)(C)C(=O)N[C@@H](CCCCN)C(=O)O` [Peptide 183], the EC50 in test [1] came to 0.0814 nM; in test [2] it was 0.0237 nM. For the same compound, in test [2], the “% Relative Potency Ratio” value is 6.8.
Consider `CC(C)C[C@H](NC(=O)[C@H](CC(C)C)NC(=O)[C@H](Cc1c[nH]c2ccccc12)NC(=O)[C@H](CCCNC(=N)N)NC(=O)[C@@H](NC(=O)[C@H](Cc1ccccc1)NC(=O)[C@H](CC(=O)O)NC(=O)[C@H](CCC(N)=O)NC(=O)[C@H](C)NC(=O)[C@H](CCCNC(=N)N)NC(=O)[C@H](CCCCNC(=O)COCCOCCNC(=O)COCCOCCNC(=O)CCCCCCCCCCCCCCCCC(=O)O)NC(=O)[C@H](CCCCN)NC(=O)[C@H](CC(=O)O)NC(=O)[C@H](CC(C)C)NC(=O)[C@](C)(Cc1ccccc1)NC(=O)[C@H](CCCCN)NC(=O)[C@H](CO)NC(=O)[C@@H](NC(=O)[C@H](CC(=O)O)NC(=O)[C@H](CO)NC(=O)[C@@H](NC(=O)[C@H](Cc1ccccc1)NC(=O)[C@@H](NC(=O)CNC(=O)[C@H](CCC(N)=O)NC(=O)C(C)(C)NC(=O)[C@@H](N)Cc1c[nH]cn1)[C@@H](C)O)[C@@H](C)O)C(C)C)C(C)C)C(=O)N[C@@H](C)C(=O)NC(C)(C)C(=O)N[C@@H](CCCCN)C(=O)O` [Peptide 184] (H-H[Aib]QGTFTSDVSK[αMeF]LDKK([AEEA-AEEA-C18 diacid])RAQDFVRWLLA[Aib]K-OH; N-terminus assumed), for which the EC50 in test [1] came to 0.0296 nM. Further, in test [2], the EC50 stood at 0.022 nM and the “% Relative Potency Ratio” value worked out at 2.7.
As to `CC(C)C[C@H](NC(=O)[C@H](Cc1c[nH]c2ccccc12)NC(=O)[C@H](CCCNC(=N)N)NC(=O)[C@@H](NC(=O)[C@H](Cc1ccccc1)NC(=O)[C@H](CC(=O)O)NC(=O)[C@H](CCC(N)=O)NC(=O)[C@H](C)NC(=O)[C@H](CCCNC(=N)N)NC(=O)[C@H](CCCCNC(=O)COCCOCCNC(=O)COCCOCCNC(=O)CC[C@H](NC(=O)CCCCCCCCCCCCCCCCC(=O)O)C(=O)O)NC(=O)[C@@H](NC(=O)[C@H](CC(=O)O)NC(=O)[C@H](CC(C)C)NC(=O)[C@](C)(Cc1ccccc1)NC(=O)[C@H](CCCCN)NC(=O)[C@H](CO)NC(=O)[C@@H](NC(=O)[C@H](CC(=O)O)NC(=O)[C@H](CO)NC(=O)[C@@H](NC(=O)[C@H](Cc1ccccc1)NC(=O)[C@@H](NC(=O)CNC(=O)[C@H](CCC(N)=O)NC(=O)C(C)(C)NC(=O)[C@@H](N)Cc1c[nH]cn1)[C@@H](C)O)[C@@H](C)O)C(C)C)[C@@H](C)O)C(C)C)C(=O)N[C@@H](CC(C)C)C(=O)N[C@@H](CCC(=O)O)C(=O)NC(C)(C)C(=O)NCC(N)=O` [Peptide 185] (H-H[Aib]QGTFTSDVSK[αMeF]LDTK([AEEA-AEEA-γGlu-C18 diacid])RAQDFVRWLLE[Aib]G-NH2; N-terminus assumed), in test [1], the EC50 is 0.23 nM. In test [2], the half-maximal effective concentration (EC50) is 0.0441 nM and the “% Relative Potency Ratio” value stood at 10.3.
